Results from patent US20080234629A1, “WATER ELECTROLYSIS TO FACILITATE DRUG DELIVERY BY IONTOPHORESIS” (priority 2007, published 2008).

Test: Solubility of acyclovir in the aqueous portion of the formulation, from propylene glycol/water solubility measurements
Assay type: physicochemical
Conditions: estimated from propylene glycol/water solubility measurements
From the text: Assuming that the electrolysis is 100% efficient, the expected proton generation is […] (0.4 mA×600 sec×6.2×10^18, coulomb, ÷[…]; assuming each electron generate one proton). Thus the electrolysis of water provides enough protons to ionize the soluble portion of the dose. Since the current density in the invented system is typical for iontophoresis, the rate of proton generation in this system can be realized in other iontophoretic systems. Because the coulombic dose in this iontophoretic system is at the low end of iontophoretic doses, larger quantities of protons could be generated for use in other applications.

In the case of `Nc1nc2c(ncn2COCCO)c(=O)[nH]1` [Acyclovir], the “solubility of acyclovir in the aqueous portion of the formulation” value is reported as roughly 0.3 % by weight.
